In brackets after ≈: the same amount, converted by molar mass.
Tests used:
[1] = system: B. subtilis ATCC 6623 (Bs); assay: Minimal inhibitory concentration (MIC) assay; assay type: cell-based; conditions: Bacillus subtilis, ATCC6623; B. subtilis ATCC 6623; read-out: Antimicrobial activity (MIC) Bs
Method in brief: (§1)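 MICs were determined by the CLSI-recommended standard broth microdilution method. Compounds started at 50 μg/ml and were serially diluted 2-fold. Each determination was run in triplicate.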

[2] = system: Enterococcus faecalis ATCC 29212 (Es12); assay: Minimal inhibitory concentration (MIC) assay; assay type: cell-based; conditions: ATCC29212; Enterococcus faecalis ATCC 29212; read-out: Antimicrobial activity (MIC) Es12
Method in brief: as §1

[3] = system: Enterococcus faecium ATCC 700221 (Em21); assay: Minimal inhibitory concentration (MIC) assay; assay type: cell-based
Method in brief: as §1

[4] = system: S. aureus ATCC 25923 (Sa23); assay: Minimal inhibitory concentration (MIC) assay; assay type: cell-based; conditions: Staphylococcus aureus, ATCC25923; S. aureus ATCC 25923, antibiotic susceptible strain; read-out: Antimicrobial activity (MIC) Sa23
Method in brief: as §1

[5] = system: S. aureus ATCC 33591 (Sa91); assay: Minimal inhibitory concentration (MIC) assay; assay type: cell-based; conditions: Staphylococcus aureus, ATCC33591; S. aureus ATCC 33591, antibiotic-resistant strain; read-out: Antimicrobial activity (MIC) Sa91
Method in brief: as §1

[6] = system: S. aureus ATCC 33592 (Sa92); assay: Minimal inhibitory concentration (MIC) assay; assay type: cell-based; conditions: Staphylococcus aureus, ATCC33592; S. aureus ATCC 33592, antibiotic-resistant strain; read-out: Antimicrobial activity (MIC) Sa92
Method in brief: as §1

[7] = system: S. aureus ATCC 700699 (Sa99); assay: Minimal inhibitory concentration (MIC) assay; assay type: cell-based; conditions: Staphylococcus aureus, ATCC700699; S. aureus ATCC 700699, antibiotic-resistant strain; read-out: Antimicrobial activity (MIC) Sa99
Method in brief: as §1

[8] = system: S. aureus BAA-2312 (Sa12); assay: Minimal inhibitory concentration (MIC) assay; assay type: cell-based; conditions: Staphylococcus aureus, BAA2312; S. aureus BAA-2312, antibiotic-resistant strain; read-out: Antimicrobial activity (MIC) Sa12
Method in brief: as §1

[9] = system: S. epidermidis 700296 (Se); assay: Minimal inhibitory concentration (MIC) assay; assay type: cell-based; conditions: Staphylococcus epidermidis, S. epidermidis 700296; read-out: Antimicrobial activity (MIC) Se
Method in brief: as §1

S. aureus strains = assay: MIC, summary over S. aureus strains; assay type: cell-based; conditions: Staphylococcus aureus; lowest MIC over S. aureus strains; read-out: minimum inhibitory concentration (MIC) value as low as
Procedure: Minimal inhibitory concentration (MIC) assay The standard microdilution method recommended by the Clinical and Laboratory Standards Institute (CLSI) was used to determine the MIC of the antibiotics. The starting concentration of compounds was 50 μg/ml and 2-fold dilution was done down the 96 honeycomb well plate column. The MIC assay was conducted in triplicates.

NCI-60 cancer cell lines = assay: NCI-60 cancer screen (whole panel); assay type: cell-based, human; conditions: 10 μM
CCRF-CEM = assay: NCI-60 cancer screen; assay type: cell-based, human; conditions: Leukemia, 10 μM
K-562 = assay: NCI-60 cancer screen; assay type: cell-based, human; conditions: K-562, Leukemia; 10 μM
MOLT-4 = assay: NCI-60 cancer screen; assay type: cell-based, human; conditions: MOLT-4, Leukemia; 10 μM
A549/ATCC = assay: NCI-60 cancer screen; assay type: cell-based, human; conditions: Non-Small Cell Lung Cancer, 10 μM
NCI-H23 = assay: NCI-60 cancer screen; assay type: cell-based, human; conditions: NCI-H23, Non-Small Cell Lung Cancer; 10 μM
NCI-H460 = assay: NCI-60 cancer screen; assay type: cell-based, human; conditions: NCI-H460, Non-Small Cell Lung Cancer; 10 μM
NCI-H522 = assay: NCI-60 cancer screen; assay type: cell-based, human; conditions: NCI-H522, Non-Small Cell Lung Cancer; 10 μM
HCT-116 = assay: NCI-60 cancer screen; assay type: cell-based, human; conditions: HCT-116, Colon Cancer; 10 μM
HCT-15 = assay: NCI-60 cancer screen; assay type: cell-based, human; conditions: HCT-15, Colon Cancer; 10 μM
SF-295 = assay: NCI-60 cancer screen; assay type: cell-based, human; conditions: SF-295, CNS Cancer; 10 μM
SNB-19 = assay: NCI-60 cancer screen; assay type: cell-based, human; conditions: SNB-19, CNS Cancer; 10 μM
SK-MEL-2 = assay: NCI-60 cancer screen; assay type: cell-based, human; conditions: SK-MEL-2, Melanoma; 10 μM
UACC-257 = assay: NCI-60 cancer screen; assay type: cell-based, human; conditions: UACC-257, Melanoma; 10 μM
OVCAR-3 = assay: NCI-60 cancer screen; assay type: cell-based, human; conditions: OVCAR-3, Ovarian Cancer; 10 μM
OVCAR-4 = assay: NCI-60 cancer screen; assay type: cell-based, human; conditions: OVCAR-4, Ovarian Cancer; 10 μM
OVCAR-5 = assay: NCI-60 cancer screen; assay type: cell-based, human; conditions: OVCAR-5, Ovarian Cancer; 10 μM
OVCAR-8 = assay: NCI-60 cancer screen; assay type: cell-based, human; conditions: OVCAR-8, Ovarian Cancer; 10 μM
NCI/ADR-RES = assay: NCI-60 cancer screen; assay type: cell-based, human; conditions: Ovarian Cancer, 10 μM
SK-OV-3 = assay: NCI-60 cancer screen; assay type: cell-based, human; conditions: SK-OV-3, Ovarian Cancer; 10 μM
786-0 = assay: NCI-60 cancer screen; assay type: cell-based, human; conditions: 786-0, Renal Cancer; 10 μM
ACHN = assay: NCI-60 cancer screen; assay type: cell-based, human; conditions: Renal Cancer, 10 μM
HS 578T = assay: NCI-60 cancer screen; assay type: cell-based, human; conditions: Breast Cancer, 10 μM

`C=C(C)[C@@H]1CC=C2c3sc(-c4ccc(O)cc4)nc3C[C@@H](C)[C@]2(C)C1` [Compound 15, 4-[(5R,5aS,7R)-7-isopropenyl-5,5a-dimethyl-5,6,7,8-tetrahydro-4H-benzo[g][1,3]benzothiazol-2-yl]phenol] was tested, and the MIC [1] was 6.25 µg/mL (≈ 17.8 µM), the MIC [2] was 12.5 µg/mL (≈ 35.6 µM) and the “Antimicrobial activity (MIC) Em21” value ([3]; Enterococcus faecium ATCC 700221) was 3.12 µg/mL. The MIC ([3]; Enterococcus faecium, ATCC700221, Enterococcus faecium ATCC 700221, read-out: Antimicrobial activity (MIC) Em21) was 3.12 µg/mL (≈ 8.89 µM), the MIC [4] was over 100 µg/mL and the MIC [5] was 6.2 µg/mL (≈ 17.6 µM). The MIC [6] was 6.25 µg/mL (≈ 17.8 µM), the MIC [7] was 12.5 µg/mL (≈ 35.6 µM) and the MIC [8] was 12.5 µg/mL (≈ 35.6 µM). For the same compound, the MIC [9] was 6.25 µg/mL (≈ 17.8 µM), the MIC (S. aureus strains) was 6.25 µg/mL (≈ 17.8 µM) and the “Growth Percent, Delta” value (NCI-60 cancer cell lines; delta over panel) was 16.54%. The “Growth Percent, Mean” value (NCI-60 cancer cell lines; mean over panel) was 100.94%, the “Growth Percent, Range” value (NCI-60 cancer cell lines; range over panel) was 34.01% and the “Growth Percent” value (CCRF-CEM) was 99.49%. The “Growth Percent” value (K-562) was 92.07%, the “Growth Percent” value (MOLT-4) was 105.32% and the “Growth Percent” value (A549/ATCC) was 95.55%. The “Growth Percent” value (NCI-H23) was 94.71%, the “Growth Percent” value (NCI-H460) was 104.69% and the “Growth Percent” value (NCI-H522) was 92.28%. The “Growth Percent” value (HCT-116) was 114.01%, the “Growth Percent” value (HCT-15) was 100.28% and the “Growth Percent” value (SF-295) was 92.61%. The “Growth Percent” value (SNB-19) was 93.47%, the “Growth Percent” value (SK-MEL-2) was 104.08% and the “Growth Percent” value (UACC-257) was 100.07%. The “Growth Percent” value (OVCAR-3) was 102.89%, the “Growth Percent” value (OVCAR-4) was 95.29% and the “Growth Percent” value (OVCAR-5) was 106.63%. For the same compound, the “Growth Percent” value (OVCAR-8) was 98.85%, the “Growth Percent” value (NCI/ADR-RES) was 105.66% and the “Growth Percent” value (SK-OV-3) was 109.13%. The “Growth Percent” value (786-0) was 101.31%, the “Growth Percent” value (ACHN) was 100.09% and the “Growth Percent” value (HS 578T) was 100.94%.
